From publication PMC12325182, “Discovery of novel and potent celastrol derivatives as PRDX1 inhibitors for cancer therapy through structure-based virtual screening” (Frontiers in Pharmacology, 2025)

Assays:
Experiment in all cases: Kinase selectivity assay
Assay type in all cases: biochemical
PTK6 = target: T1, PTK6 (Homo sapiens, UniProt Q13882); conditions: target PTK6; read-out: CP1 IC50
T1 construct: assay run by ICE Biosciences (Beijing, China)
Description: (§1) The selectivity of CP1 for PRDX1 was evaluated through kinase selectivity assays against other PRDX family members and a panel of kinases. The experiments were conducted by ICE Biosciences (Beijing, China).

INSRR = INSRR (Homo sapiens, UniProt P14616); conditions: target INSRR; read-out: CP1 IC50
Description: as §1

SRC = target: T2, SRC (Homo sapiens, UniProt P12931); conditions: target SRC; read-out: CP1 IC50
T2 construct: assay run by ICE Biosciences (Beijing, China)
Description: as §1

FGFR1 = target: T3, FGFR1 (Homo sapiens, UniProt P11362); conditions: target FGFR1; read-out: CP1 IC50
T3 construct: assay run by ICE Biosciences (Beijing, China)
Description: as §1

ABL2 = target: T4, ABL2 (Homo sapiens, UniProt P42684); conditions: target ABL2; read-out: CP1 IC50
T4 construct: ICE Biosciences (Beijing, China), ran the assays
Description: as §1

FGR = target: T5, FGR (Homo sapiens, UniProt P09769); conditions: target FGR; read-out: CP1 IC50
T5 construct: assay run by ICE Biosciences (Beijing, China)
Description: as §1

BMX = target: T6, BMX (Homo sapiens, UniProt P51813); conditions: target BMX; read-out: CP1 IC50
T6 construct: ICE Biosciences (Beijing, China), ran the assays
Description: as §1

KIT = KIT (Homo sapiens, UniProt P10721); conditions: target KIT; read-out: CP1 IC50
Description: as §1

TNK2 = target: T7, TNK2 (Homo sapiens, UniProt Q07912); conditions: target TNK2; read-out: CP1 IC50
T7 construct: assay run by ICE Biosciences (Beijing, China)
Description: as §1

EPHB2 = EPHB2 (Homo sapiens, UniProt P29323); conditions: target EPHB2; read-out: CP1 IC50
Description: as §1

FRK = target: T8, FRK (Homo sapiens, UniProt P42685); conditions: target FRK; read-out: CP1 IC50
T8 construct: assay run by ICE Biosciences (Beijing, China)
Description: as §1

SRMS = target: T9, SRMS (Homo sapiens, UniProt Q9H3Y6); conditions: target SRMS; read-out: CP1 IC50
T9 construct: assay run by ICE Biosciences (Beijing, China)
Description: as §1

TEK = target: T10, TEK (Homo sapiens, UniProt Q02763); conditions: target TEK; read-out: CP1 IC50
T10 construct: assay run by ICE Biosciences (Beijing, China)
Description: as §1

LYN = LYN (Homo sapiens, UniProt P07948); conditions: target LYN; read-out: CP1 IC50
Description: as §1

EPHA8 = EPHA8 (Homo sapiens, UniProt P29322); conditions: target EPHA8; read-out: CP1 IC50
Description: as §1

EPHA2 = target: T11, EPHA2 (Homo sapiens, UniProt P29317); conditions: target EPHA2; read-out: CP1 IC50
T11 construct: ICE Biosciences (Beijing, China), ran the assays
Description: as §1

FGFR3 = target: T12, FGFR3 (Homo sapiens, UniProt P22607); conditions: target FGFR3; read-out: CP1 IC50
T12 construct: assay run by ICE Biosciences (Beijing, China)
Description: as §1

ERBB2 = ERBB2 (Homo sapiens, UniProt P04626); conditions: target ERBB2; read-out: CP1 IC50
Description: as §1

TEC = target: T13, TEC (Homo sapiens, UniProt P42680); conditions: target TEC; read-out: CP1 IC50
T13 construct: assay run by ICE Biosciences (Beijing, China)
Description: as §1

FER = FER (Homo sapiens, UniProt P16591); conditions: target FER; read-out: CP1 IC50
Description: as §1

INSR = INSR (Homo sapiens, UniProt P06213); conditions: target INSR; read-out: CP1 IC50
Description: as §1

FGFR2 = target: T14, FGFR2 (Homo sapiens, UniProt P21802); conditions: target FGFR2; read-out: CP1 IC50
T14 construct: assay run by ICE Biosciences (Beijing, China)
Description: as §1

SYK = target: T15, SYK (Homo sapiens, UniProt P43405); conditions: target SYK; read-out: CP1 IC50
T15 construct: assay run by ICE Biosciences (Beijing, China)
Description: as §1

PDGFRB = target: T16, PDGFRB (Homo sapiens, UniProt P09619); conditions: target PDGFRB; read-out: CP1 IC50
T16 construct: assay run by ICE Biosciences (Beijing, China)
Description: as §1

FLT3 = target: T17, FLT3 (Homo sapiens, UniProt P36888); conditions: target FLT3; read-out: CP1 IC50
T17 construct: assay run by ICE Biosciences (Beijing, China)
Description: as §1

HCK = target: T18, HCK (Homo sapiens, UniProt P08631); conditions: target HCK; read-out: CP1 IC50
T18 construct: ICE Biosciences (Beijing, China), ran the assays
Description: as §1

EPHB3 = EPHB3 (Homo sapiens, UniProt P54753); conditions: target EPHB3; read-out: CP1 IC50
Description: as §1

FLT4 = target: T19, FLT4 (Homo sapiens, UniProt P35916); conditions: target FLT4; read-out: CP1 IC50
T19 construct: assay run by ICE Biosciences (Beijing, China)
Description: as §1

TXK = target: T20, TXK (Homo sapiens, UniProt P42681); conditions: target TXK; read-out: CP1 IC50
T20 construct: ICE Biosciences (Beijing, China), a contract laboratory that ran the assay
Description: as §1

PRDX6 = target: T21, PRDX6 (Homo sapiens, UniProt P30041)
T21 construct: ICE Biosciences (Beijing, China), ran the assays
Description: as §1

BTK = target: T22, BTK (Homo sapiens, UniProt Q06187); conditions: target BTK; read-out: CP1 IC50
T22 construct: ICE Biosciences (Beijing, China), ran the assays
Description: as §1

FYN = target: T23, FYN (Homo sapiens, UniProt P06241); conditions: target FYN; read-out: CP1 IC50
T23 construct: assay run by ICE Biosciences (Beijing, China)
Description: as §1

JAK2 = JAK2 (Homo sapiens, UniProt O60674); conditions: target JAK2; read-out: CP1 IC50
Description: as §1

NTRK1 = NTRK1 (Homo sapiens, UniProt P04629)
Description: as §1

Measured: IC50

T22 sequence (Q06187 whole entry): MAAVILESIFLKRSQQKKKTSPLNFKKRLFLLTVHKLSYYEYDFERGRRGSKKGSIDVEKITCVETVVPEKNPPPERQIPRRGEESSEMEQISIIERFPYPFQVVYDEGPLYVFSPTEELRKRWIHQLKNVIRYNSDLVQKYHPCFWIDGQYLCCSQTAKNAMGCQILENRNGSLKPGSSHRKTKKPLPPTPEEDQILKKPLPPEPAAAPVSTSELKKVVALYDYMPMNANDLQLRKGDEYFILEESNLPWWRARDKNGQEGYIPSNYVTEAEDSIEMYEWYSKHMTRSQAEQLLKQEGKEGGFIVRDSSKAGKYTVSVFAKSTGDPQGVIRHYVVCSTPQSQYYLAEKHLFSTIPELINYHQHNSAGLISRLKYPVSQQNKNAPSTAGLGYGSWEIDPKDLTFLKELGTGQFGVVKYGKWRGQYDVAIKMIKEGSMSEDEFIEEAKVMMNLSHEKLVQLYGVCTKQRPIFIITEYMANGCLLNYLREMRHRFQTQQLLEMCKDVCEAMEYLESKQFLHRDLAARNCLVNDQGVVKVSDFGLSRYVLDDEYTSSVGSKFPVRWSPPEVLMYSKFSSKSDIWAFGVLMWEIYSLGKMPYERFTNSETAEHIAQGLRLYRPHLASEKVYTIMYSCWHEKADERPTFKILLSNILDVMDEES
T2 sequence (P12931 whole entry): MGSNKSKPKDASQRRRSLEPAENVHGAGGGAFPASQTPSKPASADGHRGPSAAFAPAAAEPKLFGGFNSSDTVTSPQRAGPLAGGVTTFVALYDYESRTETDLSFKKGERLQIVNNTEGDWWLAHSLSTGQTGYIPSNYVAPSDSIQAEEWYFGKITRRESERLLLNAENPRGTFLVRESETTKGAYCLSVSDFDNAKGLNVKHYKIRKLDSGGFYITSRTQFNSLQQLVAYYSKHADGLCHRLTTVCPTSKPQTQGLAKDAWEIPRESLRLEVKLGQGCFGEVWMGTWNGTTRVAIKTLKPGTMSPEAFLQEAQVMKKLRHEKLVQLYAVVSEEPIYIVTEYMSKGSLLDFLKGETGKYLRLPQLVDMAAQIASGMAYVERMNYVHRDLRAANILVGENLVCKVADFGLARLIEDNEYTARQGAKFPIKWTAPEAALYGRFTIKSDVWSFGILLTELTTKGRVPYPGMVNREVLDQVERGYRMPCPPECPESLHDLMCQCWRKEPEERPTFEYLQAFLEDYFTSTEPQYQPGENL
T23 sequence (P06241 whole entry): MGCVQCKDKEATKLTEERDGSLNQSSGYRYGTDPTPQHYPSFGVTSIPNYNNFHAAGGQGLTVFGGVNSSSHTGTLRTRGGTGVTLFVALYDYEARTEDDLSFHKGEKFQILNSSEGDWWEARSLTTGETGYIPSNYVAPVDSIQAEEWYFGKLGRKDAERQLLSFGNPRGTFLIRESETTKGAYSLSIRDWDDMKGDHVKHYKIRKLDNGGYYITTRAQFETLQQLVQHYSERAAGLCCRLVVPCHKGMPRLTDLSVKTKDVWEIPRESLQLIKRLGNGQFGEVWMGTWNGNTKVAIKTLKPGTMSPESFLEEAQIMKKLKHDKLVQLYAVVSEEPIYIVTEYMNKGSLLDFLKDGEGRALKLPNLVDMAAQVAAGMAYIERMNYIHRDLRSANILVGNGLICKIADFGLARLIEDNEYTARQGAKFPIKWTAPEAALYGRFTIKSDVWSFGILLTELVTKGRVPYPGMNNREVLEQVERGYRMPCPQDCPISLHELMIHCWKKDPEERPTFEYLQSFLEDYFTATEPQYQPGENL
Chain of LYN (P07948 whole entry): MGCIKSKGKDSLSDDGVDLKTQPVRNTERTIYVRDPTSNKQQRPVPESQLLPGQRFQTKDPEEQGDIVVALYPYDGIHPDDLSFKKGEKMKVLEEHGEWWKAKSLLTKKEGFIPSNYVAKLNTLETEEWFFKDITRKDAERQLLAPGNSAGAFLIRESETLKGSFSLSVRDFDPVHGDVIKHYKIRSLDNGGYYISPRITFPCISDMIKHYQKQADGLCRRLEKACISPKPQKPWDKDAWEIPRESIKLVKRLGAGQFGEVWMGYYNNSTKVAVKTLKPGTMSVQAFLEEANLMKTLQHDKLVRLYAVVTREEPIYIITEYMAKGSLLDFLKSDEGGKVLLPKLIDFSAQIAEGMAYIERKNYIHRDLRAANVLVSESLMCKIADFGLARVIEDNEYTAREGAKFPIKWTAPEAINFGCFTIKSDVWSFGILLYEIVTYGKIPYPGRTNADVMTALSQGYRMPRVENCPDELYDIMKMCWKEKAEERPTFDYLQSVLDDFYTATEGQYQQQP
T5 sequence (P09769 whole entry): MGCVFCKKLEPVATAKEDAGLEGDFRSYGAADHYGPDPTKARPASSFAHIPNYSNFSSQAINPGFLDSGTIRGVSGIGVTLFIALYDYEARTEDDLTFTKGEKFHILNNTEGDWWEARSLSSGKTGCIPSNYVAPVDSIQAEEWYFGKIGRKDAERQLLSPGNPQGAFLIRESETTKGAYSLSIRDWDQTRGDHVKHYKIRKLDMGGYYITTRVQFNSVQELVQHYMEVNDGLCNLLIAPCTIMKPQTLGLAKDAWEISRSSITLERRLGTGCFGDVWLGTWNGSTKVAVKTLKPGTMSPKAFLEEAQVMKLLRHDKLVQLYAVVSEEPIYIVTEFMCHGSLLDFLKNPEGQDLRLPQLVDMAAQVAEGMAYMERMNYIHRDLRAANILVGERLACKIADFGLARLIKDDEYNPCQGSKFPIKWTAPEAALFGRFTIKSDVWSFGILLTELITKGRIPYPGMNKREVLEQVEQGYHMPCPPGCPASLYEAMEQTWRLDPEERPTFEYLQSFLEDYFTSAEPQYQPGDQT
T4 sequence (P42684 whole entry): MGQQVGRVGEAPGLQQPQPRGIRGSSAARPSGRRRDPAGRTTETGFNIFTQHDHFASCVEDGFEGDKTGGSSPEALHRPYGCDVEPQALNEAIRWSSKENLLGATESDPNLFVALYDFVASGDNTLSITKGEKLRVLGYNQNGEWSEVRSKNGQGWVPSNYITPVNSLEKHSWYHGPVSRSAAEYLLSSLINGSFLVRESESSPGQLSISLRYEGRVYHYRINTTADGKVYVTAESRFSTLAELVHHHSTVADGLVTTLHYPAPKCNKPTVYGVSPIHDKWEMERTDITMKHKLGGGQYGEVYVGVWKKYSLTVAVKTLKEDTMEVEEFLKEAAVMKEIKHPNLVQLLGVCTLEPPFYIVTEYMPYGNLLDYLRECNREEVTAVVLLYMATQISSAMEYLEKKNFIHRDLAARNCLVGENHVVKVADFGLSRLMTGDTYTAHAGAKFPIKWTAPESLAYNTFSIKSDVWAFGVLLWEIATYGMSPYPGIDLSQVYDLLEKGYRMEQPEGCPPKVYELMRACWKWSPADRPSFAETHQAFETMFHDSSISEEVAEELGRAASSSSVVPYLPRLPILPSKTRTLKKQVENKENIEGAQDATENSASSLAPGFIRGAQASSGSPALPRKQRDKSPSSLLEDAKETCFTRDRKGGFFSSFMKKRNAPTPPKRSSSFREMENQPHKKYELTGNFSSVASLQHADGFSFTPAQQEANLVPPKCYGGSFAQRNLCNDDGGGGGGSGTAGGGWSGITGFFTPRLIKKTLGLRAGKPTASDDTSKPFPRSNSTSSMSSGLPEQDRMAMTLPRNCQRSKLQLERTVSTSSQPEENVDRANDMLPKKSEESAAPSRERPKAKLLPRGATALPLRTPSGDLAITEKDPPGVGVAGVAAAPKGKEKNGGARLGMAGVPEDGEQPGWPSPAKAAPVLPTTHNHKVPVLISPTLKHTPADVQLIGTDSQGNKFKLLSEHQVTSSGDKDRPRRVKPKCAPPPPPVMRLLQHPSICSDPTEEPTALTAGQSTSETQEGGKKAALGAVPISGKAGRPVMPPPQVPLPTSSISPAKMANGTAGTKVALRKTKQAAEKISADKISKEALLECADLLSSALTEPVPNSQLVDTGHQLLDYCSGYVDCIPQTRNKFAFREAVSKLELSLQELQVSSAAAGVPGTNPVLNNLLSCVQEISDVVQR
T11 sequence (P29317 24-976): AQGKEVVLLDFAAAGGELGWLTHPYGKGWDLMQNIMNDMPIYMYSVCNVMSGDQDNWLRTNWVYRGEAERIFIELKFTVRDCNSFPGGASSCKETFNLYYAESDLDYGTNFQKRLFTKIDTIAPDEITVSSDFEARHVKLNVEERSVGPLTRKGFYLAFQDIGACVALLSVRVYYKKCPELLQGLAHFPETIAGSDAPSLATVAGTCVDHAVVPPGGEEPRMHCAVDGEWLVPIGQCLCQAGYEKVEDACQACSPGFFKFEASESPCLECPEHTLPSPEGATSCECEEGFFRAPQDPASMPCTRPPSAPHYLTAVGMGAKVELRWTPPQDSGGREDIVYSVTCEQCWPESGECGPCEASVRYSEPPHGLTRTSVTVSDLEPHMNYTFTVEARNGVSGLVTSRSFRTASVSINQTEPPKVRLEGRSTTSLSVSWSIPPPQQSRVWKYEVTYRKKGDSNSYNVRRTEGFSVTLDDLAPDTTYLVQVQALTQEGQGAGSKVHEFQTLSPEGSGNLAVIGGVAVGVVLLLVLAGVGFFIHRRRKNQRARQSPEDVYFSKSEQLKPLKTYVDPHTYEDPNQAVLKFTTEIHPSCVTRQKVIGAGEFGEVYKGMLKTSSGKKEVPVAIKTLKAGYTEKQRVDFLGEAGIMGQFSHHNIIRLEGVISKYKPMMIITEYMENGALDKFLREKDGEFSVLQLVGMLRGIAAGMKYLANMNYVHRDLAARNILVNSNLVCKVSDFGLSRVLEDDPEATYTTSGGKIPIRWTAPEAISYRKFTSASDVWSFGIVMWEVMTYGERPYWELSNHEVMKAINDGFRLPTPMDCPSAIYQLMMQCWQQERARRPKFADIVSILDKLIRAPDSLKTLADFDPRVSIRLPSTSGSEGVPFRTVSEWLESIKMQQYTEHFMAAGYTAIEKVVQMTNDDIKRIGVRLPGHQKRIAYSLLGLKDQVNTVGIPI

CC1=C(CC(=O)/C=C/c2cccc(CO)c2)C(=O)C=C2C1=CC=C1[C@@]2(C)CC[C@@]2(C)C3C[C@](C)(C(=O)CCc4nc(C(O)C(O)O)c(C)nc4C)CC[C@]3(C)CC[C@]12C (stereo partly shown) [CP1]
> 30 µM: PTK6 | INSRR | SRC | FGFR1 | ABL2 | FGR | BMX | KIT | TNK2 | EPHB2 | FRK | SRMS | TEK | LYN | EPHA8 | EPHA2 | FGFR3 | ERBB2 | TEC | FER | INSR | FGFR2 | SYK | PDGFRB | FLT3 | HCK | EPHB3 | FLT4 | TXK | PRDX6 | BTK | FYN | JAK2 | NTRK1
